The values below are quoted from earlier work in patent US20180110888A1, “COMBINATIONS FOR THE TREATMENT OF CANCER” (BAYER PHARMA AKTIENGESELLSCHAFT, priority 2012, published 2018).

In data set [1] the test system is CRPC (Castration Resistant Prostate Cancer) and bone metastases.
The conditions of data set [2]: single dose 250 kBq per kg body weight.
Where [3] appears, read: phase 2 studies, patients with CRPC and bone metastases.

With `C[C@]12CC[C@H](O)CC1=CC[C@@H]1[C@@H]2CC[C@]2(C)C(c3cccnc3)=CC[C@@H]12` [abiraterone], under “in vivo”, the excreted by feces was approximately 88%, the excreted by urine was approximately 5% and the terminal half life was 12 ± 5 h. Also, the “effect of administration with food” value (oral administration with food) is reported as “increases absorption”.
Consider `[Cl][223Ra][Cl]` [radium-223, Radium-223 dichloride], for which the “reduction in risk of death compared with placebo” value in data set [1] (overall survival, patients with CRPC and bone metastases) is recorded as 30.5%. The “median survival longer than placebo by” value in data set [1] (patients with CRPC and bone metastases) is on record as 2.8 months. For the same compound, in data set [1] (versus placebo), the “time to first skeletal-related event” value is “significantly prolonged”. Also, in data set [2], the “cases of grade 3 neutropenia” value is 1/5; the observed adverse reactions entry was “diarrhea and reversible myelosuppression”. Further, the safety profile result with bone metastases (phase 1 and 2 studies, patients with bone metastases) was “minimal myelotoxicity”. Further, in the data set with bone metastases (setting [3]), the “effect on disease-related biomarkers (bone ALP, PSA)” value is recorded as “improves disease-related biomarkers” and the effect on pain entry is “reduces pain”.
